Measurements from the kinase profiling compilation of Christmann-Franck et al. (2016).

Experiments:
Experiment in all cases: radiometric filter-binding kinase assay, Kinase HotSpot
Conditions in all cases: compound 0.5 µM; ATP 10 µM
ABL1 (human) = ABL1 (human) (UniProt P00519)
CAMK4 (human) = CAMK4 (human) (UniProt Q16566)
MAP3K11 (human) = MAP3K11 (human) (UniProt Q16584)
PRKG2 (human) = PRKG2 (human) (UniProt Q13237)
MAP3K3 (human) = MAP3K3 (human) (UniProt Q99759)
SRPK3 (human) = SRPK3 (human) (UniProt Q9UPE1)
STK10 (human) = STK10 (human) (UniProt O94804)
STK10 (human), sequence (O94804 whole entry, looked up): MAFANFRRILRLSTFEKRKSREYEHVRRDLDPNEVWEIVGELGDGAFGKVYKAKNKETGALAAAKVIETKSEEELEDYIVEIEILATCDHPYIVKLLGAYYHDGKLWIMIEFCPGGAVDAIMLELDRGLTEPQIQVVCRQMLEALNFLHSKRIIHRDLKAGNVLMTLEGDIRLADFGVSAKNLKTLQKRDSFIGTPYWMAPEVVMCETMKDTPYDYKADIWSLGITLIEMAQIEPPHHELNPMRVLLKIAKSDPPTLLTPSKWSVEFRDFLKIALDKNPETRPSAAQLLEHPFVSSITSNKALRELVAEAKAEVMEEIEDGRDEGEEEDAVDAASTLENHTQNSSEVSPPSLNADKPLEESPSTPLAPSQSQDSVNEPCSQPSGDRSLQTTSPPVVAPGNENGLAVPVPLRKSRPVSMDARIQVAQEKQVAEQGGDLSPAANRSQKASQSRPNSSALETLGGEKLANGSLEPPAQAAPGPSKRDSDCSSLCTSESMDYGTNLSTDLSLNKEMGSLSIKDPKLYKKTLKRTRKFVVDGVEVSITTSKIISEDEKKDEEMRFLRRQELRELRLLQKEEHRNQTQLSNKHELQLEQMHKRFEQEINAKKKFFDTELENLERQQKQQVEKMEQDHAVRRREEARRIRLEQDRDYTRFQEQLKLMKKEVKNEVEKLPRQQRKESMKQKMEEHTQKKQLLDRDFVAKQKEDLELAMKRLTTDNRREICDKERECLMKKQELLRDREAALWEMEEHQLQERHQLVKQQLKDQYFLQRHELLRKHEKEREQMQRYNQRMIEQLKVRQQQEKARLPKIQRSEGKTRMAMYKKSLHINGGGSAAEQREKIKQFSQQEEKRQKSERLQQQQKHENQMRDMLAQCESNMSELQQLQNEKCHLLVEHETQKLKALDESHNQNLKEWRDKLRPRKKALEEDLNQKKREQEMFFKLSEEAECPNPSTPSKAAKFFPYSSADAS

CLK2 (human) = CLK2 (human) (UniProt P49760)
CDK6 CCND1 (human) = CDK6 CCND1 (human) (UniProt Q00534+P24385)
JAK3 JH1 JH2 (human) = JAK3 JH1 JH2 (human) (UniProt P52333)
TYRO3 (human) = TYRO3 (human) (UniProt Q06418)
PDGFRA (human) = PDGFRA (human) (UniProt P16234)
PDGFRA (human), sequence (P16234 whole entry, looked up): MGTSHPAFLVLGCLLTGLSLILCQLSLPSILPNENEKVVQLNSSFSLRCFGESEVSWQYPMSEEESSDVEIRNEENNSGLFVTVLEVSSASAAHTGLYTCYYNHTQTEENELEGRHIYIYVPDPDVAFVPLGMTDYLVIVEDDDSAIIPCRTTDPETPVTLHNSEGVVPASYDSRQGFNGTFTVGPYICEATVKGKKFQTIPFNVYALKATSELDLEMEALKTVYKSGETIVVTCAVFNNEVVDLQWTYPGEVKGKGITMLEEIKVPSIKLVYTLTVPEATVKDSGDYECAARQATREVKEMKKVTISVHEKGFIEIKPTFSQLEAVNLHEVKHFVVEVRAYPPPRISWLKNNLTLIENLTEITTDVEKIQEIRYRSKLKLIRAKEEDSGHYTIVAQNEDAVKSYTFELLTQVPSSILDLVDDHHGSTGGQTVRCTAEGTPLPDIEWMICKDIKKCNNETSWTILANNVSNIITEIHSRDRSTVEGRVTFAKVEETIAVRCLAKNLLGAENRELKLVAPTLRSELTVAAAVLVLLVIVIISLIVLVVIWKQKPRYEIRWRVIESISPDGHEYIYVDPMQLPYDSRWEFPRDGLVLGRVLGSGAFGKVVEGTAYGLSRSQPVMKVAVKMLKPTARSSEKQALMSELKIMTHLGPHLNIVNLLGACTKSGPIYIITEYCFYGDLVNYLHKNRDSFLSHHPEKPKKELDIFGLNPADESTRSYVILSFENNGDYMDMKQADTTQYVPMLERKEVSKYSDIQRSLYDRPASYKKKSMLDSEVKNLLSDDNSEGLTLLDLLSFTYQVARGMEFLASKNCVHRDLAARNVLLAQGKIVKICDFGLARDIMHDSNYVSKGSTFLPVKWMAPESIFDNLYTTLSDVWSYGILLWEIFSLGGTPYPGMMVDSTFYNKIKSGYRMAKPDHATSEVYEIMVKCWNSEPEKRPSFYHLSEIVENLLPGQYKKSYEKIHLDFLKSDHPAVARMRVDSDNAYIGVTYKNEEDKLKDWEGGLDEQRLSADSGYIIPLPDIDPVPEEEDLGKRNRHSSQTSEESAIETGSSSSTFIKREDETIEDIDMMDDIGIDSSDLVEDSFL

TGFBR1 (human) = TGFBR1 (human) (UniProt P36897)
FLT3 (human) = FLT3 (human) (UniProt P36888)
CSNK1D (human) = CSNK1D (human) (UniProt P48730)
MAPK9 (human) = MAPK9 (human) (UniProt P45984)
PRKD1 (human) = PRKD1 (human) (UniProt Q15139)
CAMK1G (human) = CAMK1G (human) (UniProt Q96NX5)
CDK4 CCND3 (human) = CDK4 CCND3 (human) (UniProt P30281+P11802)
EPHA5 (human) = EPHA5 (human) (UniProt P54756)
CHEK2 (human) = CHEK2 (human) (UniProt O96017)
CDK9 CCNT1 (human) = CDK9 CCNT1 (human) (UniProt P50750+O60563)
MAPKAPK2 (human) = MAPKAPK2 (human) (UniProt P49137)
LTK (human) = LTK (human) (UniProt P29376)
YES1 (human) = YES1 (human) (UniProt P07947)
TBK1 (human) = TBK1 (human) (UniProt Q9UHD2)
CLK3 (human) = CLK3 (human) (UniProt P49761)
CHUK (human) = CHUK (human) (UniProt O15111)
CSNK1G3 (human) = CSNK1G3 (human) (UniProt Q9Y6M4)
DSTYK (human) = DSTYK (human) (UniProt Q6XUX3)
DSTYK (human), sequence (Q6XUX3 whole entry, looked up): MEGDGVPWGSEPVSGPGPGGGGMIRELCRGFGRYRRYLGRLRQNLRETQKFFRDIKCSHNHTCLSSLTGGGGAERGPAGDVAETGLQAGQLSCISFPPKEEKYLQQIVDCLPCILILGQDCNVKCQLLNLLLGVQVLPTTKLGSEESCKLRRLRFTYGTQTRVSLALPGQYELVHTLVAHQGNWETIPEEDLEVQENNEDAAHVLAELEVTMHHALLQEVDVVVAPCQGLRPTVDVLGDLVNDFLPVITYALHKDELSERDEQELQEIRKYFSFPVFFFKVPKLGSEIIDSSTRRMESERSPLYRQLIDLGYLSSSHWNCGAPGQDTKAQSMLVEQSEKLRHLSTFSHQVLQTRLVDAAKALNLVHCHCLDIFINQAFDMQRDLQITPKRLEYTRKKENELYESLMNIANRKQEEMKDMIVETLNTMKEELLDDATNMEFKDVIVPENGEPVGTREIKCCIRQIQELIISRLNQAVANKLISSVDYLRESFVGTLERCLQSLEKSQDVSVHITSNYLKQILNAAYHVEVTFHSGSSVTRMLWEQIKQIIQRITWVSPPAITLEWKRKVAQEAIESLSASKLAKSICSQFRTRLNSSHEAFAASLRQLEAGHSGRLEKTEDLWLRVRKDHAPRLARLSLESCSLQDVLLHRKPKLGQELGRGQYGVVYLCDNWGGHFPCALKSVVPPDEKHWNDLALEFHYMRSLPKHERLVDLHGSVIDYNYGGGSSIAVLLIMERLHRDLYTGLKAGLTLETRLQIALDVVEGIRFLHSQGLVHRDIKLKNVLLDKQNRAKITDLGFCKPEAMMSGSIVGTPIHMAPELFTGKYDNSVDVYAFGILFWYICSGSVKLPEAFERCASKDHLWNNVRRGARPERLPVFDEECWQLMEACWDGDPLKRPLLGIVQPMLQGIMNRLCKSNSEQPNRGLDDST

PRKX (human) = PRKX (human) (UniProt P51817)
CDC42BPB (human) = CDC42BPB (human) (UniProt Q9Y5S2)
AXL (human) = AXL (human) (UniProt P30530)
PRKCD (human) = PRKCD (human) (UniProt Q05655)
EPHA7 (human) = EPHA7 (human) (UniProt Q15375)
HIPK4 (human) = HIPK4 (human) (UniProt Q8NE63)
HIPK4 (human), sequence (Q8NE63 whole entry, looked up): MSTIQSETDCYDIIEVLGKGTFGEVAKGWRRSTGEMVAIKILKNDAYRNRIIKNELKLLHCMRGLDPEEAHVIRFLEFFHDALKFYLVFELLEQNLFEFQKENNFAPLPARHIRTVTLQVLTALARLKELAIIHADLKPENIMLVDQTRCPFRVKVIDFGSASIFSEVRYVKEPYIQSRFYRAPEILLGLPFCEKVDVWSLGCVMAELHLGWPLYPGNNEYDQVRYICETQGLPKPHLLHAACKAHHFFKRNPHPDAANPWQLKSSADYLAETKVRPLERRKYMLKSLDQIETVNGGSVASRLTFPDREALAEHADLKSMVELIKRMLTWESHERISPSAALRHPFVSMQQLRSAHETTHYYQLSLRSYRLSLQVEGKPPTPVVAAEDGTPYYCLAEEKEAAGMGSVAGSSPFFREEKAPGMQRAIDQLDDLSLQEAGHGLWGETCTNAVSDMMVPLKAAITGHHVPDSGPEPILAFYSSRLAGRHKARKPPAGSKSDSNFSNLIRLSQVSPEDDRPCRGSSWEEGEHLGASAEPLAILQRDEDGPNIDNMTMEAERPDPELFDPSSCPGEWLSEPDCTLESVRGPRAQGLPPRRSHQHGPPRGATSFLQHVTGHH

INSRR (human) = INSRR (human) (UniProt P14616)
MAP2K2 (human) = MAP2K2 (human) (UniProt P36507)
AURKC (human) = AURKC (human) (UniProt Q9UQB9)
AURKC (human), sequence (Q9UQB9 whole entry, looked up): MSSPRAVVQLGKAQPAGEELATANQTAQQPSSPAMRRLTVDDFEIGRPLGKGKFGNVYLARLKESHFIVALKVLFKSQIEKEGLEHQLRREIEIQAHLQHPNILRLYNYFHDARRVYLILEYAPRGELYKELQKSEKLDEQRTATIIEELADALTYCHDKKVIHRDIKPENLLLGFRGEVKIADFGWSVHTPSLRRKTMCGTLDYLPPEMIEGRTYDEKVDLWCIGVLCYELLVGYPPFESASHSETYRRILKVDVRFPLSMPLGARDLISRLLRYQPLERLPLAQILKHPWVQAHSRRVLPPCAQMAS

STK11 (human) = STK11 (human) (UniProt Q15831)
[1] = system: PRKCQ (human), Q04759 [P330L]

ABL1 (human), sequence (P00519 whole entry, looked up): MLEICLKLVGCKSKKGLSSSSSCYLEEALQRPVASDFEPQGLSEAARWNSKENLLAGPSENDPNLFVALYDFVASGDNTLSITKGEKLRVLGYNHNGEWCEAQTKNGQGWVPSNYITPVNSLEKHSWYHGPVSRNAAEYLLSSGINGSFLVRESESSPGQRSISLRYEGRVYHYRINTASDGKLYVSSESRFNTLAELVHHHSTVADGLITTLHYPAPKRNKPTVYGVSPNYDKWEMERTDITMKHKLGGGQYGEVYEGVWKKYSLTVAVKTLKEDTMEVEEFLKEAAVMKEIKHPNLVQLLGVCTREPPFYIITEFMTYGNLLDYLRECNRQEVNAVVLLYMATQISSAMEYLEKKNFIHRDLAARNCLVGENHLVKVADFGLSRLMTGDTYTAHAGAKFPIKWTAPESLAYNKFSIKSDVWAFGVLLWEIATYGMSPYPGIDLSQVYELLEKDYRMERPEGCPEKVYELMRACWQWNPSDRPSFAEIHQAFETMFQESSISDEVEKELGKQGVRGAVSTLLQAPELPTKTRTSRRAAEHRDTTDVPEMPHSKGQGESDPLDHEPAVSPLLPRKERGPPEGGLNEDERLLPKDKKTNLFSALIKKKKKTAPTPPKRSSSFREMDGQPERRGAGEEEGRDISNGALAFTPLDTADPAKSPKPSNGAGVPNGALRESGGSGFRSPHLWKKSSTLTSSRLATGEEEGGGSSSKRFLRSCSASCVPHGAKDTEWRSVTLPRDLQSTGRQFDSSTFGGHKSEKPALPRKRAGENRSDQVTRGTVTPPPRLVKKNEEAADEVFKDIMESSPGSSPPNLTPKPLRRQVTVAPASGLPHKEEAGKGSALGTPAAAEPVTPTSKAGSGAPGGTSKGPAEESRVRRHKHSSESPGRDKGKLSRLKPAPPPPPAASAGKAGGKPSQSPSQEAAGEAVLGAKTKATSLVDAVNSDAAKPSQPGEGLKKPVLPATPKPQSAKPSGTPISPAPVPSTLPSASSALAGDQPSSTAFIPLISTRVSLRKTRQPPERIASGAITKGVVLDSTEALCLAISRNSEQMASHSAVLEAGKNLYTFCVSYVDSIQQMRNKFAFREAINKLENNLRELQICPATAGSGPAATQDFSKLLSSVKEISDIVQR

With N#Cc1c[nH]c2c[nH]/c(=N\Cc3cccnc3)cc2/c1=N\c1ccc(F)c(Cl)c1 as the compound, how does the residual activity (ABL1 (human)) read?
Its residual activity is 93.4%.

And the residual activity (CAMK4 (human))?
Its residual activity is 95.2%.

What about the residual activity (MAP3K11 (human)) of the same compound?
Its residual activity is 89%.

What about the residual activity (PRKG2 (human)) of the same compound?
The residual activity was 90.9%.

And the residual activity (MAP3K3 (human))?
Its residual activity is 75%.

What about the residual activity (SRPK3 (human)) of the same compound?
Its residual activity is 96.4%.

And the residual activity (STK10 (human))?
The residual activity was 52.8%.

What about the residual activity (CLK2 (human)) of the same compound?
Its residual activity is 79.9%.

What about the residual activity (CDK6 CCND1 (human)) of the same compound?
Its residual activity is 92.2%.

And the residual activity (JAK3 JH1 JH2 (human))?
Its residual activity is 86.2%.

What about the residual activity (TYRO3 (human)) of the same compound?
Its residual activity is 98%.

What about the residual activity (PDGFRA (human)) of the same compound?
Its residual activity is 94.3%.

And the residual activity (TGFBR1 (human))?
Its residual activity is 99.6%.

What about the residual activity (FLT3 (human)) of the same compound?
Its residual activity is 83.6%.

And the residual activity (CSNK1D (human))?
Its residual activity is 88.4%.

What about the residual activity (MAPK9 (human)) of the same compound?
Its residual activity is 100%.

What about the residual activity (PRKD1 (human)) of the same compound?
The residual activity was 94.5%.

And the residual activity (CAMK1G (human))?
The residual activity was 96.1%.

What about the residual activity (CDK4 CCND3 (human)) of the same compound?
Its residual activity is 101%.

And the residual activity (EPHA5 (human))?
The residual activity was 90.6%.

What about the residual activity (CHEK2 (human)) of the same compound?
Its residual activity is 90.5%.

What about the residual activity (CDK9 CCNT1 (human)) of the same compound?
Its residual activity is 91.2%.

What about the residual activity (MAPKAPK2 (human)) of the same compound?
Its residual activity is 100%.

And the residual activity (LTK (human))?
Its residual activity is 95.6%.

What about the residual activity (YES1 (human)) of the same compound?
Its residual activity is 93.6%.

What about the residual activity (TBK1 (human)) of the same compound?
The residual activity was 83.4%.

What about the residual activity (CLK3 (human)) of the same compound?
The residual activity was 96.7%.

What about the residual activity (CHUK (human)) of the same compound?
Its residual activity is 96.3%.

What about the residual activity (CSNK1G3 (human)) of the same compound?
Its residual activity is 103%.

And the residual activity (DSTYK (human))?
Its residual activity is 87.3%.

What about the residual activity (PRKX (human)) of the same compound?
Its residual activity is 101%.

What about the residual activity (CDC42BPB (human)) of the same compound?
The residual activity was 124%.

And the residual activity (AXL (human))?
Its residual activity is 103%.

What about the residual activity (PRKCD (human)) of the same compound?
Its residual activity is 95.2%.

And the residual activity (EPHA7 (human))?
The residual activity was 83.7%.

What about the residual activity (HIPK4 (human)) of the same compound?
Its residual activity is 93.1%.

What about the residual activity (INSRR (human)) of the same compound?
The residual activity was 97%.

And the residual activity (MAP2K2 (human))?
The residual activity was 105%.

What about the residual activity (AURKC (human)) of the same compound?
The residual activity was 91.8%.

And the residual activity (STK11 (human))?
Its residual activity is 91.1%.

And the residual activity [1]?
Its residual activity is 113%.

What does the source list for CS(=O)(=O)CCNCc1ccc(-c2ccc3ncnc(Nc4ccc(OCc5cccc(F)c5)c(Cl)c4)c3c2)o1?
residual activity (ABL1 (human)): 96.4%; residual activity (CAMK4 (human)): 107%; residual activity (MAP3K11 (human)): 106%; residual activity (PRKG2 (human)): 107%; residual activity (MAP3K3 (human)): 110%; residual activity (SRPK3 (human)): 104%; residual activity (STK10 (human)): 94.8%; residual activity (CLK2 (human)): 95.1%; residual activity (CDK6 CCND1 (human)): 100%; residual activity (JAK3 JH1 JH2 (human)): 96.2%; residual activity (TYRO3 (human)): 98.9%; residual activity (PDGFRA (human)): 108%; residual activity (TGFBR1 (human)): 101%; residual activity (FLT3 (human)): 92.6%; residual activity (CSNK1D (human)): 91.2%; residual activity (MAPK9 (human)): 98.1%; residual activity (PRKD1 (human)): 99.4%; residual activity (CAMK1G (human)): 102%; residual activity (CDK4 CCND3 (human)): 104%; residual activity (EPHA5 (human)): 103%; residual activity (CHEK2 (human)): 96.8%; residual activity (CDK9 CCNT1 (human)): 85.2%; residual activity (MAPKAPK2 (human)): 94.7%; residual activity (LTK (human)): 100%; residual activity (YES1 (human)): 84.7%; residual activity (TBK1 (human)): 103%; residual activity (CLK3 (human)): 107%; residual activity (CHUK (human)): 99.5%; residual activity (CSNK1G3 (human)): 104%; residual activity (DSTYK (human)): 108%; residual activity (PRKX (human)): 111%; residual activity (CDC42BPB (human)): 95.7%; residual activity (AXL (human)): 96.2%; residual activity (PRKCD (human)): 103%; residual activity (EPHA7 (human)): 95.6%; residual activity (HIPK4 (human)): 108%; residual activity (INSRR (human)): 104%; residual activity (MAP2K2 (human)): 106%; residual activity (AURKC (human)): 90.9%; residual activity (STK11 (human)): 106%; residual activity [1]: 72.4%
